Inconclusive results are not listed. Activity calls are given as the source filed them. How the calls were made is not given here.
Test system: Mycobacterium tuberculosis non-replicating, growth inhibition
Assay: growth inhibition of non-replicating M. tuberculosis (AID 488890)

Structure (SMILES) | IC50
CCOC(=O)C1=C(c2ccccc2)NC(N)=NC1c1ccc(OCc2ccc(Cl)cc2)c(OC)c1 (stereo not drawn) | 4.25 µM
O=C(NNC(=O)c1ncc(Cl)c(Cl)c1Cl)c1ccc(F)cc1 | 15.1 µM (inactive)
Cc1cc2cc(CNC(=O)C3CCCC3)ccc2n1C | 17.5 µM (inactive)
O=C(NCC(c1cccs1)N1CCOCC1)c1cc([N+](=O)[O-])cc([N+](=O)[O-])c1 (stereo not drawn) | 2.96 µM
CCCc1cc(=O)n2[nH]c(C)c(-c3ccccc3)c2n1 | 11.4 µM (inactive)
CC(=O)OCCN(C)c1cc(SC(C)C)c2nonc2c1[N+](=O)[O-] | 13.7 µM (inactive)
COc1ccc(C(=O)COC(=O)CCC(=O)c2cccs2)cc1 | 34.2 µM (inactive)
COc1ccc(CCOC(=O)c2ccc(N)c([N+](=O)[O-])c2)cc1 | 12.3 µM (inactive)
O=C(Nc1nnc(-c2ccco2)o1)c1cccc2ccccc12 | 19.1 µM (inactive)
CC1=NN(C(=O)c2ccoc2C)C(O)(C(F)(F)F)C1 (stereo not drawn) | 1.63 µM
COc1ccc(CN2CCC(C(=O)Nc3ccc(Oc4cccnc4)cc3)CC2)c(C)c1C | 7.54 µM
N#Cc1cc(N)ccc1-n1cccc1 | 6.15 µM
COc1ccc(OC(=O)c2cc3ccccc3o2)cc1 | 18.4 µM (inactive)
O=C(COc1cccc2ccccc12)Nc1ccc(Cl)cc1C(=O)O | 6.24 µM
CCc1ccc(Cc2cnc(NC(=O)C3=NCCN3)s2)cc1 | 2.85 µM
CCCCCCCC(=O)N/N=C(\C)c1ccc(O)cc1O | 1.57 µM
Cc1ccccc1C(=O)NN1CC(C(=O)OCc2ccc(Cl)c(Cl)c2)CC1=O (stereo not drawn) | 14.1 µM (inactive)
Cc1ccc(NC(=S)C2=C(O)c3sccc3N(C)S2(=O)=O)cc1 | 22.3 µM (inactive)
N=C1/C(=C/c2ccc(OC(=O)c3ccco3)cc2)C(=O)N=C2SC=CN12 | 5.02 µM
COc1cc(/C=C2/C(=O)NN(c3cccc(F)c3)C2=O)ccc1OC(=O)c1ccco1 | 5.04 µM
Cn1cccc1/C=C1/C(=O)NC(=S)N(Cc2ccc(F)cc2)C1=O | 6.03 µM
O=C(O)c1ccccc1C(=O)NNc1ccc(Cl)cc1 | 4.09 µM
O=C(NCCSc1ccccc1)c1ccc(Br)cc1 | 32.1 µM (inactive)
CCOc1ccc(CC(=O)N2N=C(C)CC2(O)C(F)(F)F)cc1 (stereo not drawn) | 13.3 µM (inactive)

Structure (SMILES) | IC50
O=C(COc1ccccc1)NNc1nc2ccccc2s1 | 34.2 µM (inactive)
Cc1nc2scc(-c3ccccc3)c2c(=O)o1 | 14.8 µM (inactive)
O=C(Nc1ccc2c(c1)CCC2)c1ccc(Br)o1 | 7.88 µM
Cc1ccc(/C=N/NC(=O)C2COc3ccccc3O2)s1 (stereo not drawn) | 0.7 µM
O=C(Nc1ncccc1O)c1ccc(Oc2ccccc2)cc1 | 20.5 µM (inactive)
O=C(Nc1nnc(-c2ccc3c(c2)CCCC3)o1)c1c(F)cccc1F | 3.12 µM
O=[N+]([O-])c1ccc(-c2nc3ccc([N+](=O)[O-])cc3[nH]2)cc1 | 16 µM (inactive)
CNC(C)C#Cc1ccc2oc3cc(C)c(C)cc3c(=O)c2c1 (stereo not drawn) | 7.55 µM
CC(=O)Nc1nc2ccccc2n1Cc1ccc(Cl)cc1 | 1.93 µM
CCOc1cc(CNCCO)cc(Br)c1OCc1ccc(Cl)cc1 | 5.65 µM
Cc1ccc(Nc2ccccc2N)cc1 | 2.52 µM
N#CC(C#N)=c1ccc2c(c1)NC1(CCCCC1)N=2 | 5.71 µM
COc1cc(OC)cc(C(=O)NNC(=O)c2ccccn2)c1 | 11.6 µM (inactive)
N#Cc1nc(-c2cccs2)oc1NCCc1ccccc1 | 4.77 µM
COc1ccc(C2=NC(=O)/C(=C\c3cc(OC)c(OC)c(OC)c3)O2)cc1 | 3.37 µM
CCCC(=O)Nc1cccc(-c2nc3ccccc3c(=O)o2)c1 | 0.97 µM
O=C(COc1ccccc1)NC1CCCCC1 | 0.61 µM
Nc1nc2ccccc2n1CCOc1ccc(Br)cc1 | 21.5 µM (inactive)
COc1ccccc1C1=NOC(COC(=O)c2ccc([N+](=O)[O-])cc2)C1 (stereo not drawn) | 18.8 µM (inactive)
Cc1ccc(C)c(-c2nnc(NC(=O)c3ccc([N+](=O)[O-])o3)o2)c1 | 0.46 µM
Nc1c(C(=O)NC2CCCCC2)nsc1C(=O)OCC(=O)NC1CCCCC1 | 3.27 µM
O=C(Oc1ccccc1)c1ccc(COC(=O)c2cnccn2)cc1 | 10.7 µM (inactive)
COC(=O)c1ccc(CSc2nnc(-c3ccncc3)o2)o1 | 7.22 µM
CCN1C(=O)CC(N2CCC(c3nc4ccccc4[nH]3)CC2)C1=O (stereo not drawn) | 34.2 µM (inactive)

Structure (SMILES) | IC50
O=C(Nc1nnc(C2=COCCO2)o1)c1ccc(F)cc1 | 15.9 µM (inactive)
CCC1(O)CC(c2ccccc2)=NN1C(=O)c1ccccc1F (stereo not drawn) | 3.45 µM
CC(=O)N1CCN(c2cc3c(cc2F)c(=O)c(C(=O)O)cn3C2CC2)CC1 | 1.42 µM
CN1CC(=O)NC1=NC(=O)C12CC3CC(CC(C3)C1)C2 | 4.08 µM
Cc1ccc(C(=O)OCC(=O)N2CCCCCC2)c(O)c1 | 8.95 µM
O=C(OCc1ccc([N+](=O)[O-])cc1)c1cc2ccccc2oc1=O | 12.5 µM (inactive)
CCn1c(NC(=O)c2nn(C)cc2Br)nc2ccccc21 | 4.97 µM
CCn1nnc(NC(=O)c2ccc([N+](=O)[O-])o2)n1 | 9.04 µM
O=C(NNc1ccc([N+](=O)[O-])cc1)c1ccccc1Cl | 9.32 µM
C/C(=N\NC(=O)COc1cccc(C)c1)c1ccc2ccccc2c1O | 0.18 µM
CC1=NN(C(=O)c2ccc(Br)cc2)C(O)(c2ccccc2)C1 (stereo not drawn) | 0.47 µM
Cc1ccc(C(=O)O/N=C(\N)c2cccc([N+](=O)[O-])c2)cc1 | 7 µM
CCOC(=O)C1CCCN(Cc2nc(Cc3ccccc3Cl)no2)C1 (stereo not drawn) | 27.1 µM (inactive)
CC(C)(C)c1ccc(Cn2c(=N)n(CC(O)c3ccco3)c3ccccc32)cc1 (stereo not drawn) | 7.36 µM
O=c1c2ccccc2sn1-c1ccccc1 | 6.8 µM
C/C(=N\NC(=O)CCc1ccccc1)C1C(=O)c2ccccc2C1=O | 0.25 µM
NC(=O)N/N=C\c1cc(Br)ccc1O | 4.2 µM
COC(=O)CN(C#N)c1nc(N(C)C)nc(N(C)C)n1 | 16.5 µM (inactive)
CCOc1ccc(OC(=O)c2ccc3c(=O)n4c(nc3c2)CCC4)cc1 | 0.5 µM
CC(C)(C)c1ccc(-c2nc(C#N)c(NCCCn3ccnc3)o2)cc1 | 38.2 µM (inactive)
O=C(Nc1ccc(N2CCN(C(=O)c3cccs3)CC2)cc1)c1ccc([N+](=O)[O-])o1 | 0.35 µM
O=C(N/N=C/c1ccc[nH]1)c1ccncc1 | 2.22 µM
O=C1Nc2cc(C(=O)NCCN3CCCCCC3)ccc2S/C1=C\c1ccccc1 | 12.5 µM (inactive)
O=C(NN=C(Cc1ccccc1)Cc1ccccc1)c1ccncc1 | 0.35 µM

Structure (SMILES) | IC50
O=C(OCC#CCSc1nc2ccccc2o1)c1ccco1 | 5.75 µM
COc1ccc(C(O)CNc2ccc(C)cc2)cc1 (stereo not drawn) | 43.2 µM (inactive)
CCNC(=O)COC(=O)c1ccc(-c2nc3ccccc3s2)s1 | 5.7 µM
COc1ccc(-c2nnc(SCC(C)C)o2)cc1 | 0.9 µM
C/C(=N\O)c1cc(Cl)ccc1O | 2.42 µM
COc1ccc(-c2[nH]ncc2CN2CCCCCCC2)c(OC)c1 | 11 µM (inactive)
COc1cc(C(=O)ON=C2C=C(C)C(=O)C(C)=C2)cc(OC)c1OC | 48.6 µM (inactive)
CCC(C)c1ccc(OCCn2ccnc2)cc1 (stereo not drawn) | 10.4 µM (inactive)
Brc1ccc(-c2ccc(CNCc3ccccn3)o2)cc1 | 1.12 µM
CSCCC(=O)N1CCCC(CNC(=O)c2ccc(-c3ccccc3)cc2)C1 (stereo not drawn) | 17.9 µM (inactive)
O=C(CNC(=O)c1ccco1)OCc1ccc(C(=O)Oc2ccccc2)cc1 | 8.17 µM
CCn1c2ccccc2c2cc(CNCc3ccc(OC)cc3OC)ccc21 | 7.41 µM
CNC(=O)COC(=O)c1ccc(-c2nc3ccccc3s2)s1 | 4.97 µM
CC(C)(C)OC(=O)NCCc1nnc(S(=O)(=O)Cc2ccc(Cl)cc2Cl)o1 | 4.85 µM
CCCCCC(=O)N/N=C(\C)c1ccccn1 | 9.55 µM
O=C1CCCCC1Sc1nnc(-c2ccc3c(c2)OCO3)o1 (stereo not drawn) | 1.83 µM
CCOC(=O)COc1ccc(C(=O)c2ccccc2)c(O)c1 | 1.24 µM
CC1(C(=O)OCC(=O)Nc2nnc(-c3ccccc3)o2)CC1(Cl)Cl (stereo not drawn) | 3.19 µM
C=CCN1C(=O)C2(NNc3ccccc3O2)c2ccccc21 (stereo not drawn) | 2.25 µM
Cc1cc(NC(=O)c2sccc2C)n(-c2nc3ccccc3[nH]2)n1 | 8.81 µM
Cc1ccn2c(Nc3ccccc3)c(-c3ccccn3)nc2c1 | 10.4 µM (inactive)
Cc1ccc(C(=O)Oc2cccc(-n3cnnn3)c2)cc1 | 25.3 µM (inactive)
Cn1c(=O)c(Oc2ccc(Cl)cc2)c(O)c2ccccc21 | 11.1 µM (inactive)
COc1cccc(NC(=O)c2cnc(SC)nc2)c1 | 10.4 µM (inactive)

Structure (SMILES) | IC50
O=C(CCN1CCN(C/C=C/c2ccccc2)CC1)Nc1ccc(Cl)cc1 | 18.8 µM (inactive)
Cc1ccc(-c2nc3ccccn3c2Nc2ccccc2)o1 | 8.4 µM
CCNc1nc(NC(C)(C)C)nc(N2CCCCC2)n1 | 9.76 µM
CCCCNS(=O)(=O)c1ccc(OCC(=O)OC)cc1 | 15.6 µM (inactive)
COc1cc(OC)c2c(OC)cccc2n1 | 6.63 µM
CN1C(c2ccccc2)CC(=NO)CC1c1ccccc1 (stereo not drawn) | 11.3 µM (inactive)
CC(=O)CCC1CC(c2ccc(Cl)cc2)=NO1 (stereo not drawn) | 2.39 µM
CCOC(=O)COc1ccc2c(c1)c(C(=O)OCC)c(C)n2CC | 10.9 µM (inactive)
CCOC(=O)c1csc(COc2ccc(OC)cc2)n1 | 7.75 µM
O=C(N/N=C/c1ccc([N+](=O)[O-])s1)c1cccc(Br)c1 | 4.95 µM
CC(C)CCNCC(O)CON=C1c2ccccc2-c2ccccc21 (stereo not drawn) | 9.29 µM
CC(C)CCC1=NN(C(=O)c2ccco2)C(O)(C(F)(F)F)C1 (stereo not drawn) | 0.94 µM
O=C(O)c1ccccc1C(=O)NNc1ccc(F)cc1 | 12.4 µM (inactive)
Cc1cc2ncn(/N=C/c3ccc([N+](=O)[O-])s3)c2cc1C | 1.09 µM
O=c1c2c(nc3c(-c4ccccc4)c[nH]n13)CCCC2 | 21.1 µM (inactive)
O=C(O)c1[nH]c(=O)[nH]c(=O)c1F | 5.7 µM
FC(F)(Cl)c1nnc2ccc(Cl)nn12 | 1.38 µM
CC(=O)N1CCN(C(=O)CC2OC(=O)c3ccccc32)CC1 (stereo not drawn) | 18.9 µM (inactive)
CC1CC(C)CN(C(=O)COC(=O)c2ccc([N+](=O)[O-])o2)C1 (stereo not drawn) | 5.18 µM
CCOC(=O)Nc1cccc(OCC(=O)Nc2ccccc2OC)c1 | 16.6 µM (inactive)
Cc1cccnc1NC(=O)COc1ccc2oc3c(c2c1)CCCC3 | 9.41 µM
CCOC(=O)c1ccc(NC2=CC(=O)C(=O)c3ccccc32)cc1 | 9.94 µM

— PubChem BioAssay AID488890 (Southern Research Specialized Biocontainment Screening …, 2010)
